Results taken from paper PMC8765293, “Inhibitor-Resistant Mutants Give Important Insights into Candida albicans ABC Transporter Cdr1 Substrate Specificity and Help Elucidate Efflux Pump Inhibition” (Antimicrobial Agents and Chemotherapy, 2022).
≈ marks a conversion by molar mass, not a printed value. Where two headings read alike, the source gives them in different places.

Tests used:
[1] = tested on: AD/CDR1-A713P; assay: MIC, modified CLSI M27-A3 broth microdilution
[2] = tested on: AD/CDR1 (AD1-8u- overexpressing wt Cdr1); assay: MIC, modified CLSI M27-A3 broth microdilution; settings: Saccharomyces cerevisiae, read-out: MIC (drug susceptibility)
[3] = molecular target: wt Cdr1 ATPase activity (Candida albicans, UniProt Q5ANA3); assay: biochemical; settings: for Vmax of ATPase activity in the presence of inhibitor: CDR1
[4] = molecular target: wt Cdr1 (FLC efflux of AD/CDR1 cells) (Candida albicans, UniProt Q5ANA3); settings: for lowest MICFLC in the presence of inhibitor: FLC 5 to 640 mg/L tested
[5] = tested on: AD/pABC3 (empty vector control, sensitive strain); assay: microbe, parasite or virus in culture; settings: Saccharomyces cerevisiae, read-out: MIC (drug susceptibility)
[6] = tested on: AD/CDR1-T1355N; assay: MIC, modified CLSI M27-A3 broth microdilution
[7] = tested on: AD/CDR1-M639I; assay: MIC, modified CLSI M27-A3 broth microdilution
[8] = tested on: AD/CDR1-G521R; assay: MIC, modified CLSI M27-A3 broth microdilution
[9] = tested on: AD/pABC3 (empty vector control, sensitive strain)
[10] = tested on: all strains, including AD/pABC3; assay: Liquid MIC of efflux pump inhibitors alone
[11] = molecular target: Cdr1-G521R (FLC transport) (Candida albicans, UniProt Q5ANA3, G521R); assay: Agarose diffusion FLC chemosensitization assay; type: cell-based; settings: 0.25× MICFLC, disc
Description: (§1) Compounds were tested for inhibition of FLC transport by yeast strains overexpressing Cdr1 or Cdr1 mutations.

[12] = molecular target: Cdr1-A713P (FLC transport) (Candida albicans, UniProt Q5ANA3, A713P); assay: Agarose diffusion FLC chemosensitization assay; type: cell-based; settings: 0.25× MICFLC, disc
Description: as §1

[13] = molecular target: wt Cdr1 (FLC transport of AD/CDR1 cells) (Candida albicans, UniProt Q5ANA3); assay: Agarose diffusion FLC chemosensitization assay; type: cell-based; settings: inhibitor-only control
Description: as §1

[14] = molecular target: Cdr1-M639I (FLC transport) (Candida albicans, UniProt Q5ANA3, M639I); assay: Agarose diffusion FLC chemosensitization assay; type: cell-based; settings: 0.25× MICFLC, disc
Description: as §1

[15] = molecular target: Cdr1-T1355N (FLC transport) (Candida albicans, UniProt Q5ANA3, T1355N); assay: Agarose diffusion FLC chemosensitization assay; type: cell-based; settings: 0.25× MICFLC, disc
Description: as §1

[16] = tested on: AD/pABC3 (empty vector control, sensitive strain); settings: cited from earlier work
[17] = Saccharomyces cerevisiae, read-out: MIC (drug susceptibility)

Sequence of wt Cdr1 ATPase activity (Q5ANA3 whole entry): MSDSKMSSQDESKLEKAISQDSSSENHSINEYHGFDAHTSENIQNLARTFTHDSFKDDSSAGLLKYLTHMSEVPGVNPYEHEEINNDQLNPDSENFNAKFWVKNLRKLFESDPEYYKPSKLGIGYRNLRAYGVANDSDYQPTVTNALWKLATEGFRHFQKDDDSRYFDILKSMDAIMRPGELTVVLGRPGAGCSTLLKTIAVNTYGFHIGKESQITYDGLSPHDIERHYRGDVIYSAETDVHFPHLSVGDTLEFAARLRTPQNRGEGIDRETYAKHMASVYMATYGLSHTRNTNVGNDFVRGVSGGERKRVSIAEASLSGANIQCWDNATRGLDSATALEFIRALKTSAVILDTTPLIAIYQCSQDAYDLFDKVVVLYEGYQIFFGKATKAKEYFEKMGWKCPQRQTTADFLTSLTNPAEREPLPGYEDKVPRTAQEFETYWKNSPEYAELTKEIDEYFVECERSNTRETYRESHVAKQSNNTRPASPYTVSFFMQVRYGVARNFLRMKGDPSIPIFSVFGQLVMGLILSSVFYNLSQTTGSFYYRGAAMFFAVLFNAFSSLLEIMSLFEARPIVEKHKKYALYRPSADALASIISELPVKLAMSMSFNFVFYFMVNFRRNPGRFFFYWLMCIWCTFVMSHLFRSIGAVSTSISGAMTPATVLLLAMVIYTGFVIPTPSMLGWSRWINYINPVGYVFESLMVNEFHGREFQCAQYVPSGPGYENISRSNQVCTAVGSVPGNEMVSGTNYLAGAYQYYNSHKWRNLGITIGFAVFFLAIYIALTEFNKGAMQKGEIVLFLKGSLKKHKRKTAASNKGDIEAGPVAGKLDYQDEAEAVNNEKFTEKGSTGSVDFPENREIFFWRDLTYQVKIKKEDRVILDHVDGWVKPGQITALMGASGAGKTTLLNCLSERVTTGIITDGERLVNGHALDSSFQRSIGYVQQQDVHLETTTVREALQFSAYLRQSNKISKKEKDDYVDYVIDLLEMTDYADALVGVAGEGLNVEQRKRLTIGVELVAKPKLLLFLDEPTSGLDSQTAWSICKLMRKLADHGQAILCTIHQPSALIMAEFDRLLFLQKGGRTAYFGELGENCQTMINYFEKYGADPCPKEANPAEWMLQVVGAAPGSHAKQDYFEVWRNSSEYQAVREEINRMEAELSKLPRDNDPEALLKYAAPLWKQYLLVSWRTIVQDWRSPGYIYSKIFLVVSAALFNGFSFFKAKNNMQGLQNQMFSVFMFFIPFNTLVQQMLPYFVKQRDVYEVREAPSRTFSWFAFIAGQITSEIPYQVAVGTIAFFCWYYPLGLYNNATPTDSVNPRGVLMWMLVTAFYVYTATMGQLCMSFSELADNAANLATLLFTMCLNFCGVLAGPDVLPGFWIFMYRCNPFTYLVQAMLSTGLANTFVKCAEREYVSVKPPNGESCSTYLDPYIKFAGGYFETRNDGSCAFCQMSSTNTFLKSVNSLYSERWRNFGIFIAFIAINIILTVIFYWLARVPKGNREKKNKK
Sequence of wt Cdr1 (FLC efflux of AD/CDR1 cells) (Q5ANA3 whole entry): as above
Sequence of Cdr1-A713P (FLC transport) (Q5ANA3 whole entry A713P, the tested form may be a part): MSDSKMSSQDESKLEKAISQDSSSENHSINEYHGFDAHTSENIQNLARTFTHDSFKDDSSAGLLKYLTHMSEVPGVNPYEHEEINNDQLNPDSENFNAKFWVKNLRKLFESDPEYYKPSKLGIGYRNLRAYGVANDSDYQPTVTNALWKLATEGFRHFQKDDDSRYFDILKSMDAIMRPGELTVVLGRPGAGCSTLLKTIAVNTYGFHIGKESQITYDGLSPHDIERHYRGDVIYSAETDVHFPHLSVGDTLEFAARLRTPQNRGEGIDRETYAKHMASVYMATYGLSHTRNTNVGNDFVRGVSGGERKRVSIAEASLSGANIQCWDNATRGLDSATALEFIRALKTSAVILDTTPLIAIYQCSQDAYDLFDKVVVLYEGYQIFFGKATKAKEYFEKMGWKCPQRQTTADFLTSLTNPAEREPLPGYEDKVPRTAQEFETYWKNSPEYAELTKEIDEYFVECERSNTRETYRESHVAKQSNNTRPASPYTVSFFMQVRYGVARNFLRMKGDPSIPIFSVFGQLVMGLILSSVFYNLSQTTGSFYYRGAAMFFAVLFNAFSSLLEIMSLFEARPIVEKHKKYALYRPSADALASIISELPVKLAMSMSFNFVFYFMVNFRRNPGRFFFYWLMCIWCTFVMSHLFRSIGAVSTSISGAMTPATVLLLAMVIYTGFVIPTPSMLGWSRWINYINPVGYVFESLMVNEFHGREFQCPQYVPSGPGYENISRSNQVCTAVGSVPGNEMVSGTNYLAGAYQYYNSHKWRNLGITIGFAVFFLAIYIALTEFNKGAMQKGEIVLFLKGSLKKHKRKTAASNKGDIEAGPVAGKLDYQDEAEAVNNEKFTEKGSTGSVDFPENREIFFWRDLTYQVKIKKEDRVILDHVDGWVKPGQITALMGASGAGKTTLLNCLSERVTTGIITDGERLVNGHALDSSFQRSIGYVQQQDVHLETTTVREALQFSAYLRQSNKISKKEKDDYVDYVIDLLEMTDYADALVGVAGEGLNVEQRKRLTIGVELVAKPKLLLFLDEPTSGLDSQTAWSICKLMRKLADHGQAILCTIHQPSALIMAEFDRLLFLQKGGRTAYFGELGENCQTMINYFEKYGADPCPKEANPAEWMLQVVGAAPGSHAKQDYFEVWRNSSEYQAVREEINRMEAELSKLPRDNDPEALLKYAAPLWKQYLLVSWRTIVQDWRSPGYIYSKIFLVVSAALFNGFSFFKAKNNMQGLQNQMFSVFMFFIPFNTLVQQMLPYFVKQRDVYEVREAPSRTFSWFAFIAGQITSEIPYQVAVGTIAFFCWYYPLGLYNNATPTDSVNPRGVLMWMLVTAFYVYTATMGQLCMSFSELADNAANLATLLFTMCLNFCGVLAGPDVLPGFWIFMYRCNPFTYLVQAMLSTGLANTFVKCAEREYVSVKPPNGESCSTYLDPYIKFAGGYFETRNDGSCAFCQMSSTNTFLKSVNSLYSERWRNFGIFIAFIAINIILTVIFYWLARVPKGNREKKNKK

OC(Cn1cncn1)(Cn1cncn1)c1ccc(F)cc1F [FLC, fluconazole]
Fold-reduced resistance level (MIC) relative to AD/CDR1 ([1]; A713P, 1 = no change): 2 fold | MIC [1, 17]: 320 µg/mL (≈ 1040 µM) | MIC [2]: 640 µg/mL (≈ 2090 µM) | effect of substrate on ATPase activity [3]: no effect | MICFLC [4]: 640 mg/L | MIC [5]: 1.25 µg/mL (≈ 4.08 µM) | MIC [6, 17]: 320 µg/mL (≈ 1040 µM) | Fold-reduced resistance level (MIC) relative to AD/CDR1 ([6]; T1355N, 1 = no change): 2 fold | Fold-reduced resistance level (MIC) relative to AD/CDR1 ([7]; M639I, 1 = no change): 1 fold | MIC [7, 17]: 640 µg/mL (≈ 2090 µM) | Fold-reduced resistance level (MIC) relative to AD/CDR1 ([8]; G521R, 1 = no change): 4 fold | MIC [8, 17]: 160 µg/mL (≈ 522 µM) | MIC (drug susceptibility) [9]: 1 µg/mL (≈ 3.27 µM)

milbemycin α25
IC50 ([3]; CDR1 (wt), from Fig. 4, read-out: IC50 for inhibition of Cdr1 ATPase activity): 2800 nM | FICI (inhibitor/FLC combination) [4]: <0.02 | lowest inhibitor concentration necessary to achieve the lowest MICFLC ([4]; CDR1): 0.63 µM | lowest MICFLC in the presence of inhibitor ([4]; CDR1): 5 mg/L | FICI (inhibitor/FLC combination) ([4]; listed as milbemycin α25): 0.02 | IC50 ([4]; read-out: IC50 for inhibition of FLC efflux (MICFLC), CDR1, live whole cells, from Fig. 3B): 80 nM | MIC of inhibitor alone ([10]; all strains, including AD/pABC3): > 20 µM | susceptibility of FLC transport to inhibitor on agar [11]: more resistant | susceptibility of FLC transport to inhibitor on agar [12]: resistant | toxicity of inhibitor alone on agar without FLC [13]: slight growth inhibitory zone | susceptibility of FLC transport to inhibitor on agar [14]: most resistance | susceptibility of FLC transport to inhibitor on agar [15]: most resistance

CC(C)[C@H]1C(=O)O[C@H](C(C)C)C(=O)N(C)[C@@H](C(C)C)C(=O)O[C@H](C(C)C)C(=O)N(C)[C@@H](C(C)C)C(=O)O[C@H](C(C)C)C(=O)N1C [Enniatin B, enniatin B]
IC50 [3]: 180 nM | Ki [3]: 200 ± 30 nM | Vmax of ATPase activity in the presence of inhibitor ([3]; [I] 0.1 μM): 182 nmol/min/mg | Vmax of ATPase activity in the presence of inhibitor ([3]; [I] 0.5 μM): 98 nmol/min/mg | type of inhibition of ATPase activity (Lineweaver-Burk) ([3]; wt Cdr1): noncompetitive inhibition | FICI (inhibitor/FLC combination) [4]: <0.13 | IC50 [4]: 160 nM | lowest inhibitor concentration necessary to achieve the lowest MICFLC ([4]; CDR1): 1.25 µM | lowest MICFLC in the presence of inhibitor ([4]; CDR1): 5 mg/L | MIC ([10]; Saccharomyces cerevisiae, read-out: MIC of inhibitor alone): 10 µM | synergy with the Cdr1 substrates FLC and R6G [16]: no synergy | susceptibility of FLC transport to inhibitor on agar [11]: resistant | susceptibility of FLC transport to inhibitor on agar [12]: remained susceptible | susceptibility of FLC transport to inhibitor on agar [14]: substantial resistance | susceptibility of FLC transport to inhibitor on agar [15]: substantial resistance
